{"source": "patent US20260069588A1", "about": "“VEPDEGESTRANT FOR USE IN TREATING CANCER” (Arvinas Operation, Inc., priority 2022, published 2026)", "key": {"hERG channel": {"target": "hERG channel (Homo sapiens, UniProt Q12809)", "sequence (Q12809 whole entry)": "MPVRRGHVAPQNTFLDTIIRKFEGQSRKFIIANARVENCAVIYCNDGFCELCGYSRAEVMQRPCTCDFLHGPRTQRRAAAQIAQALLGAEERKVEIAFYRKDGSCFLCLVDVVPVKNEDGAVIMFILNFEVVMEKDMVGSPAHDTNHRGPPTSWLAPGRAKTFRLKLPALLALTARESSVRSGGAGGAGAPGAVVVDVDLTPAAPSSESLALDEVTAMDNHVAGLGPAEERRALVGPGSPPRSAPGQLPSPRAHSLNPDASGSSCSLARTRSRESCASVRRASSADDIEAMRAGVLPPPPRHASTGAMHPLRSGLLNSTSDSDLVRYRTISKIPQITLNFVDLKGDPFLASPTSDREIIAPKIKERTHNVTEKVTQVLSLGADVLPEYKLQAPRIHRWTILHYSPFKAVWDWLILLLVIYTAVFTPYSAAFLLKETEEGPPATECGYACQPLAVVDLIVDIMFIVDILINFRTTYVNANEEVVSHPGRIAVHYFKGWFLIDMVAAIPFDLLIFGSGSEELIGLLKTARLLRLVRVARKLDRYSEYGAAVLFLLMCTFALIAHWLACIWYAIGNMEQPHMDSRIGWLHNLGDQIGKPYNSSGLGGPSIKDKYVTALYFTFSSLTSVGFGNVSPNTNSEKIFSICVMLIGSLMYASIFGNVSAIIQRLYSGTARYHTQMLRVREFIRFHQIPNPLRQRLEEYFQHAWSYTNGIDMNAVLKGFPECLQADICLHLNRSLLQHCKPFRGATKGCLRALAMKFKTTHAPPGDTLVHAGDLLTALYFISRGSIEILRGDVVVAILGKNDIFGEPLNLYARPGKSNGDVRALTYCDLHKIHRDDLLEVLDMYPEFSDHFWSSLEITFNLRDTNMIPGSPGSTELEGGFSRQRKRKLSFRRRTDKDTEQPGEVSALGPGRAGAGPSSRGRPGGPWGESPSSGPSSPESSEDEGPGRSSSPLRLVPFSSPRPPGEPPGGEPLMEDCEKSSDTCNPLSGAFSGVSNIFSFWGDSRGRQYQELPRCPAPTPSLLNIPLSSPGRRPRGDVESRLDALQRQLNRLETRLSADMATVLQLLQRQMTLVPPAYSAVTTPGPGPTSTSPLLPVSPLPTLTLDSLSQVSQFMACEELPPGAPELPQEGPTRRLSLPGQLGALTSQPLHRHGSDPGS", "assay": "hERG channel inhibition", "type": "biochemical", "description": "The pivotal nonclinical safety studies were conducted in the US in accordance with GLP regulations per the US 21 CFR Part 58. These include the cardiovascular safety pharmacology study in dogs, the pivotal 28-day and 3-month repeat-dose toxicology studies in rats and dogs, and an in vitro phototoxicity assay. The bacterial reverse mutation assay, in vitro micronucleus assay, and 2 in vitro hERG studies were conducted in the UK in accordance with the UK Good Laboratory Practice Monitoring Authority, MHRA: Good Laboratory Practice Regulations 1999, Statutory Instrument 1999 No. 3106 as amended by the Good Laboratory Practice (Codification Amendments Etc.) Regulations, 2004, Statutory Instrument 2004, No. 994; and the OECD GLP and OECD Principles on Good Laboratory Practice ENV/MC/CHEM (98) 17 (Revised in 1997, Issued January 1998).accordance with the OECD Principles of Good Laboratory Practice and as accepted by Regulatory Authorities throughout the European Union, United States of America (FDA), Japan (MHLW), and other countries that are signatories to the OECD Mutual Acceptance of Data Agreement."}, "Ikaros": {"target": "Ikaros (Homo sapiens, UniProt Q13422)", "sequence (Q96SW2 whole entry partner, species assumed)": "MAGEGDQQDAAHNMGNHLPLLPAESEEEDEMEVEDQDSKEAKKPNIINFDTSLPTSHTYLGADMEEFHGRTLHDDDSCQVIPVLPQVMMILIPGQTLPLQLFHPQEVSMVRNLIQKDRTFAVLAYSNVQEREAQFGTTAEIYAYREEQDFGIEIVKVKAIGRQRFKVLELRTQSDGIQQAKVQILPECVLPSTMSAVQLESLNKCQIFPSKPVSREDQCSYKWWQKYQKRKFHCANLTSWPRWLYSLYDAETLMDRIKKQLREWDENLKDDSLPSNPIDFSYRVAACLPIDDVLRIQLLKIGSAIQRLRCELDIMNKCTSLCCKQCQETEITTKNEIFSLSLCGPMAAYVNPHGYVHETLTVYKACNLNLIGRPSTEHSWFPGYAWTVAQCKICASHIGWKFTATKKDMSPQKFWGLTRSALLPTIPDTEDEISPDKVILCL", "sequence (Q16531 whole entry partner, species assumed)": "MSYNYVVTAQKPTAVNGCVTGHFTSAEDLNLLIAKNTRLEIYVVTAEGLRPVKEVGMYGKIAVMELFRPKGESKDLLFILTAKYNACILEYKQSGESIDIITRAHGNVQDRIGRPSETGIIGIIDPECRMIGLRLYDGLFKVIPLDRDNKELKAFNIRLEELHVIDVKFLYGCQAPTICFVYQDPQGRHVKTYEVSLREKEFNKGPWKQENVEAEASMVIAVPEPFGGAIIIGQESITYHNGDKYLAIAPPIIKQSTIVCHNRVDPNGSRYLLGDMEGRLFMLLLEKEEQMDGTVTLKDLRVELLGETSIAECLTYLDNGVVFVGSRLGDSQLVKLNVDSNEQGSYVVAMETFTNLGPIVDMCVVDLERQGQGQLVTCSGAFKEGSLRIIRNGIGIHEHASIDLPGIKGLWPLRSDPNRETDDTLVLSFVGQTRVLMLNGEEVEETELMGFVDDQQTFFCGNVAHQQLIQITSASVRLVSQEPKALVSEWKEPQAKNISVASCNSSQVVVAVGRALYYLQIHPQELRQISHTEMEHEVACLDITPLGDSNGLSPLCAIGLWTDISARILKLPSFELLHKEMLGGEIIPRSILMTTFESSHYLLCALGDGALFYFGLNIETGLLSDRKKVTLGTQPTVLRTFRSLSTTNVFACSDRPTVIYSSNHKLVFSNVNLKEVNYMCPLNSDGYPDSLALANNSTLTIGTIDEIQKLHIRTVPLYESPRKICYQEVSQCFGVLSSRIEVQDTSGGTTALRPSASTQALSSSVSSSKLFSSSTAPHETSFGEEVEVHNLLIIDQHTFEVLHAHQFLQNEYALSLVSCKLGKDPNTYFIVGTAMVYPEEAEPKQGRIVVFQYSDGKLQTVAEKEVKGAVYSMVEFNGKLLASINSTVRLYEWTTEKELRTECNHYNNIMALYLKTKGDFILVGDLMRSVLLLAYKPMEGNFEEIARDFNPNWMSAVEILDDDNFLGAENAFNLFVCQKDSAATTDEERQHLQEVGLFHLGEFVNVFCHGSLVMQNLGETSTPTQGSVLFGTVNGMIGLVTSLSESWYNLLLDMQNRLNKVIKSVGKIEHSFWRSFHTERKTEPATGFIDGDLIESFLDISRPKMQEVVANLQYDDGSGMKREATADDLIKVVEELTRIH", "sequence (Q13422 whole entry, species assumed)": "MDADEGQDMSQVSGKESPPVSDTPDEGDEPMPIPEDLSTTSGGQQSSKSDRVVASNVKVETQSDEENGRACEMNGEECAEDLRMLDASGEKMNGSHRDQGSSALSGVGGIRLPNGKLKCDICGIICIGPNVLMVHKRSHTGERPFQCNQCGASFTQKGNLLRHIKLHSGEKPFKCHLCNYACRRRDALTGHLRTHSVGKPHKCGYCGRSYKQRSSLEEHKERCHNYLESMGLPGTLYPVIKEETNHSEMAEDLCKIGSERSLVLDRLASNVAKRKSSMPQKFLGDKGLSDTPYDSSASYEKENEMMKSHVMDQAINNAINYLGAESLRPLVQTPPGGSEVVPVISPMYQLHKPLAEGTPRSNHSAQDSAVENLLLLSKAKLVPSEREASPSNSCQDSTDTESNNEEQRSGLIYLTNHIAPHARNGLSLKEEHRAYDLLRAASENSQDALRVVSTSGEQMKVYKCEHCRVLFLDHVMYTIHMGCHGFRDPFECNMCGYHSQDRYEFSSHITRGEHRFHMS", "assay": "Cereblon neomorphic substrate degradation, Ikaros", "type": "cell-based", "conditions": "in vitro", "source_text": "(§1) These drugs bind to cereblon and promote the degradation of novel (neomorphic) substrates."}, "Aiolos": {"target": "Aiolos (Homo sapiens, UniProt Q9UKT9)", "sequence (Q96SW2 whole entry partner)": "as the sequence (Q96SW2 whole entry partner, species assumed) above", "sequence (Q16531 whole entry partner)": "as the sequence (Q16531 whole entry partner, species assumed) above", "sequence (Q9UKT9 whole entry)": "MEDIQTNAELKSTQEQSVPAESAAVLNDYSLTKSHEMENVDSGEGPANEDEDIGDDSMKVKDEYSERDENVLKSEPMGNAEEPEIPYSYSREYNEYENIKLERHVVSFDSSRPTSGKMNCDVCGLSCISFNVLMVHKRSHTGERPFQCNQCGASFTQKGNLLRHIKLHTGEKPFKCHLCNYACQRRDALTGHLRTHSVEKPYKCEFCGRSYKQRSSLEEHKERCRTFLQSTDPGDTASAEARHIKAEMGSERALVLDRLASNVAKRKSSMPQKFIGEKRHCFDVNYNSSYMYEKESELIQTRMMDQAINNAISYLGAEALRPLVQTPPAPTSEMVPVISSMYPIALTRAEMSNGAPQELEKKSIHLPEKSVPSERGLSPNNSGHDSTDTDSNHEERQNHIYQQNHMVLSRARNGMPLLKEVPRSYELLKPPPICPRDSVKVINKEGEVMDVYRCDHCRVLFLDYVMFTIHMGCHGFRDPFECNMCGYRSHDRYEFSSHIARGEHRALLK", "assay": "Cereblon neomorphic substrate degradation, Aiolos", "type": "cell-based", "conditions": "in vitro", "source_text": "as §1"}, "[1]": {"tested_on": "cultured human peripheral blood lymphocytes", "assay": "In vitro micronucleus assay", "type": "cell-based", "conditions": "3+21 hours ± S9; 24+24 hours −S9", "description": "Compound A was tested in a GLP-compliant in vitro micronucleus assay."}, "ER [2]": {"tested_on": "ER", "assay": "ER expression in paired tumor biopsies (FIH Part A)", "type": "in vivo, human", "conditions": "14 paired biopsies, doses up to 500 mg QD, WT or mutant ER"}, "[3]": {"assay": "Plasma protein binding, mouse", "type": "in vitro ADME", "conditions": "read-out: free fraction"}, "ER [4]": {"target": "T1, ER (Homo sapiens, UniProt P03372)", "T1 sequence (P03372 1-595)": "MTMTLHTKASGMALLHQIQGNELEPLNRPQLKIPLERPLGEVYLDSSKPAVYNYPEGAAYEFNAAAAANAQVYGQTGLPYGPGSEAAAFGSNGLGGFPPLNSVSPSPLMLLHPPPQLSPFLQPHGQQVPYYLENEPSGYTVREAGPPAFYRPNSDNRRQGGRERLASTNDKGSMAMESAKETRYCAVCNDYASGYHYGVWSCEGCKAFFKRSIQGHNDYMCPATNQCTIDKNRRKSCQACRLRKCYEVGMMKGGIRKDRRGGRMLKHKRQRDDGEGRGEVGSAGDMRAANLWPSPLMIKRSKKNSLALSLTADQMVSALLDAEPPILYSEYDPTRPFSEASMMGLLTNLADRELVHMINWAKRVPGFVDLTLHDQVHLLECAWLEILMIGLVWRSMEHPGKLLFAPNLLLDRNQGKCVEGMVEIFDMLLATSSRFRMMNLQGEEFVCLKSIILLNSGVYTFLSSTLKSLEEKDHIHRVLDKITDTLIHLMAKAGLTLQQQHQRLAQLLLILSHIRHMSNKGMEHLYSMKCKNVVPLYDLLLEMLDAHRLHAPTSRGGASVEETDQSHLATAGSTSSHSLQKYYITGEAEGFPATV", "assay": "Tumor ER levels in MCF7 xenograft", "type": "in vivo, mouse", "design": "from tissue; host or cells: MCF7/estradiol xenograft tumour in mice", "conditions": "all doses (3, 10, 30 mg/kg), study termination", "description": "The 30 mg/kg dose was associated with a mean AUC0-24 of 5,717 ng·h/mL. The tumor ER levels were reduced by ≥94% at all doses compared to mice administered vehicle only (FIG. 3B).\nThe 30 mg/kg dose was associated with a mean AUC0-24 of 5,717 ng·h/mL."}, "[5]": {"assay": "28-day GLP oral toxicity study in dogs", "type": "in vivo", "conditions": "dog", "source_text": "There were no mortalities and no Compound A-related clinical observations, changes in BW or food consumption or ophthalmic observations. There were no ARV-471-related ECG abnormalities observed, including no effects on PR-interval, QRS duration, QT or QTc intervals, or heart rate and no arrhythmias or abnormal waveforms."}, "ERP": {"target": "ERP (Homo sapiens, UniProt Q92731)", "sequence (Q92731 whole entry)": "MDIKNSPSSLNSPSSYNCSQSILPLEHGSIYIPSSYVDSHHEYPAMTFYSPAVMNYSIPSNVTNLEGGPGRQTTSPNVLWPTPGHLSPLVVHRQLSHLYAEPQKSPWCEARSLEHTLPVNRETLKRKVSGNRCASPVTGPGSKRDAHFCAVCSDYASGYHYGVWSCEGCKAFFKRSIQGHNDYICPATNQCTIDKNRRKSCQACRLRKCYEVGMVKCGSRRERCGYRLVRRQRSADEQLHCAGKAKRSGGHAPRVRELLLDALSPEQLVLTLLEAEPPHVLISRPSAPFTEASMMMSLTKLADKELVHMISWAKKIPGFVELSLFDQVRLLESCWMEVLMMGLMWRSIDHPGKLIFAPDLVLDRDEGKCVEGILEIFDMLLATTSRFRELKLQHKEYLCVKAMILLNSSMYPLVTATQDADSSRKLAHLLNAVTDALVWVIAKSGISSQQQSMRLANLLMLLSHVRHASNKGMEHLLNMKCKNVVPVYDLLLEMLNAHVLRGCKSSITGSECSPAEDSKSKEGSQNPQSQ", "assay": "Secondary pharmacodynamics binding, ERP", "conditions": "in vitro"}, "MCF7 cells": {"tested_on": "MCF7 cells", "assay": "Live-cell imaging proliferation, MCF7", "type": "cell-based", "conditions": "Homo sapiens, 144 h; MCF7, up to 6 days", "source_text": "Full growth of the cells over this time period is shown by extent of cell confluence with dimethyl sulfoxide (DMSO)."}, "ER [6]": {"target": "T2, ER (Rattus norvegicus, UniProt P06211)", "T2 construct": "uterine wet weight in juvenile rats; from tissue; host or cells: uterus of juvenile rats, in vivo", "T2 sequence (P06211 whole entry)": "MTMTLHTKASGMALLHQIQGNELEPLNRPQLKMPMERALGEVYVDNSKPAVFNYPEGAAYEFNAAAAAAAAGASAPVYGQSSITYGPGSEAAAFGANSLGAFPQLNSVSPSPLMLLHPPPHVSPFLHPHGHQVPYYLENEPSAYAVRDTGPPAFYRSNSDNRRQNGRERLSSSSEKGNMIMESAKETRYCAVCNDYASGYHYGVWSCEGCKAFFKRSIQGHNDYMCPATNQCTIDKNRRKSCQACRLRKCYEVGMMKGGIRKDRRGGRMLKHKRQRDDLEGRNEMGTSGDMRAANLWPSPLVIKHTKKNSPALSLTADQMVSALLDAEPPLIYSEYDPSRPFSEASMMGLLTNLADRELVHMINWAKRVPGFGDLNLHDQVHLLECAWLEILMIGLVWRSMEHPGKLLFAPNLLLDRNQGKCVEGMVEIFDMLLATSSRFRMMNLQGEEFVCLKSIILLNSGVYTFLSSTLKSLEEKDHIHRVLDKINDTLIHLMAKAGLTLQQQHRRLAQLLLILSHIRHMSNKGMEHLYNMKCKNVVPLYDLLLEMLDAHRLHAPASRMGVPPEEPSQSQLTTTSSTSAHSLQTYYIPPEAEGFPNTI", "assay": "Uterine wet weight in juvenile rats (ER agonist activity)", "type": "in vivo"}, "[7]": {"assay": "3-month GLP oral toxicity study in rats", "type": "in vivo, rat", "conditions": "for AUC(0-t) / Cmax: po, 300 mg/kg/day", "description": "Male and female rats, 10/sex/group, were administered 0 (vehicle), 30, 100, or 300 mg/kg/day. Assessment of toxicity was based on mortality, clinical observations, BWs, food consumption, ophthalmic examinations, and clinical and anatomic pathology. Blood samples for TK were obtained from a satellite group of animals."}, "[8]": {"assay": "GLP cardiovascular telemetry study in beagle dogs with TK phase", "type": "in vivo, dog", "description": "A lead-in single-dose TK and tolerability study conducted prior to the telemetry study indicated approximately dose-proportional increase in exposure between 200 and 400 mg/kg in the dog."}, "[9]": {"assay": "Biopharmaceutics Classification System", "type": "physicochemical", "conditions": "low solubility/low permeability"}, "[10]": {"conditions": "both sexes, beagle, plasma, dog n=8, 400 mg/kg single oral, TK phase"}}, "note": "pIC50: −log10 of the molar value.", "data": [{"smiles": "O=C1CC[C@H](N2Cc3cc(N4CCN(CC5CCN(c6ccc([C@@H]7c8ccc(O)cc8CC[C@@H]7c7ccccc7)cc6)CC5)CC4)ccc3C2=O)C(=O)N1", "note": "[Compound A, (S)-3-(5-(4-((1-(4-((1R,2S)-6-hydroxy-2-phenyl-1,2,3,4-tetrahydronaphthalen-1-yl)phenyl)piperidin-4-yl)methyl)piperazin-1-yl)-1-oxoisoindolin-2-yl)piperidine-2,6-dione]", "values": [{"measurement": "pIC50", "setting": "hERG channel", "result": "< 4.60"}, {"measurement": "unbound Cmax margin to hERG IC50", "setting": "hERG channel; recommended Phase 3 dose of 200 mg", "result": "approximately 170 ×"}, {"measurement": "degradation of Ikaros", "setting": "Ikaros", "result": "did not degrade"}, {"measurement": "degradation of Aiolos", "setting": "Aiolos", "result": "did not degrade"}, {"measurement": "frequency of micronuclei", "setting": "[1]", "result": "did not induce biologically relevant increases"}, {"measurement": "ER degradation, median decrease", "setting": "ER [2]", "result": 67, "unit": "%"}, {"measurement": "fraction unbound at 1 μM", "setting": "[3]", "result": 0.061}, {"measurement": "tumor ER levels reduced vs vehicle", "setting": "ER [4]", "result": "≥ 94", "unit": "%"}, {"measurement": "ECG evaluations", "setting": "[5]; 28 days, up to 90 mg/kg/day", "result": "did not elicit any changes in ECG evaluations"}, {"measurement": "NOAEL at 28 days", "setting": "[5]; in vivo, 28 days oral", "result": 90, "unit": "mg/kg/day"}, {"measurement": "binding", "setting": "ERP", "result": "bound"}, {"measurement": "GI50", "setting": "MCF7 cells", "result": 4, "unit": "nM"}, {"measurement": "uterine wet weight", "setting": "ER [6]", "result": "did not increase uterine wet weight"}, {"measurement": "sex differences in Cmax and AUC0-24", "setting": "[7]; both, rat, in vivo", "result": "less than 2 fold"}, {"measurement": "NOAEL", "setting": "[7]; female rats, 3 months oral", "result": "a NOAEL was not determined"}, {"measurement": "AUC(0-t)", "setting": "[7]; female, rat, in vivo", "result": 75000, "unit": "ng·h/mL"}, {"measurement": "Cmax", "setting": "[7]; female, rat, in vivo", "result": 3710, "unit": "ng/mL"}, {"measurement": "AUC(0-t)", "setting": "[7]; male, rat, in vivo", "result": 88500, "unit": "ng·h/mL"}, {"measurement": "Cmax", "setting": "[7]; male, rat, in vivo", "result": 4330, "unit": "ng/mL"}, {"measurement": "NOAEL at 3 months", "setting": "[7]; rat, in vivo, male rats, 3 months oral", "result": 300, "unit": "mg/kg/day"}, {"measurement": "Cmax", "setting": "[8]; [10]", "result": 16000, "unit": "ng/mL"}, {"measurement": "Tmax", "setting": "[8]; [10]", "result": 5.1, "unit": "h"}, {"measurement": "AUC(0-t)", "setting": "[8]; both sexes, beagle, plasma, dog n=8, 400 mg/kg single oral, TK phase, read-out: mean AUC0-24", "result": 272000, "unit": "ng·h/mL"}, {"measurement": "QT- or QTc-interval", "setting": "[8]; dog, 400 mg/kg", "result": "no changes in QT- or QTc-interval"}, {"measurement": "shortening of the PR interval", "setting": "[8]; dog, 400 mg/kg, 1 to 3.25 hours postdose", "result": 7, "unit": "ms"}, {"measurement": "cardiovascular effects", "setting": "[8]; dog, single oral 90 and 200 mg/kg", "result": "No Compound A-related effects were noted"}, {"measurement": "Biopharmaceutics Classification System class", "setting": "[9]", "result": "Class IV"}]}]}
